Measurements: ChEMBL document CHEMBL4321845, “Discovery and Characterization of Potent Pan-Genotypic HCV NS5A Inhibitors Containing Novel Tricyclic Central Core Leading to Clinical Candidate” (J Med Chem, 2019)

Legend:
[1] = Drug metabolism in rat liver microsomes assessed as metabolic rate at 1 uM preincubated for 5 mins before NADPH addition and measured up to 30 mins by LC-MS/MS analysis; type: ADME, Microsome; conditions: 0.5 h
[2] = Drug metabolism in human liver microsomes assessed as metabolic rate at 1 uM preincubated for 5 mins before NADPH addition and measured up to 30 mins by LC-MS/MS analysis; type: ADME, Microsome; conditions: 0.5 h
[3] = biological target: CYP2D6 (Homo sapiens, UniProt P10635); assay: Inhibition of CYP2D6 in pooled human liver microsomes at 10 uM pre-incubated for 5 mins before NADPH addition and measured after 10 mins by UPLC-MS/MS analysis relative to control; type: ADME
[4] = biological target: CYP2C9 (Homo sapiens, UniProt P11712); assay: Inhibition of CYP2C9 in pooled human liver microsomes at 10 uM pre-incubated for 5 mins before NADPH addition and measured after 10 mins by UPLC-MS/MS analysis relative to control; type: ADME
[5] = biological target: CYP3A4 (Homo sapiens, UniProt P08684); assay: Inhibition of CYP3A4 in pooled human liver microsomes at 10 uM pre-incubated for 5 mins before NADPH addition and measured after 10 mins by UPLC-MS/MS analysis relative to control; type: ADME
[6] = Cytotoxicity in human HuH7 cells assessed as inhibition of cell growth at 3 uM incubated for 72 hrs by CCK8 assay relative to control; type: cell-based, Huh-7; conditions: read-out: GI
[7] = Cytotoxicity in human HepG2 cells assessed as inhibition of cell growth at 3 uM incubated for 72 hrs by CCK8 assay relative to control; type: cell-based; conditions: read-out: GI
[8] = Cytotoxicity in human HepG2 cells assessed as inhibition of cell growth at 10 uM incubated for 72 hrs by CCK8 assay relative to control; type: cell-based; conditions: read-out: GI
[9] = Cytotoxicity in human HEK293 cells assessed as inhibition of cell growth at 3 uM incubated for 72 hrs by CCK8 assay relative to control; type: cell-based; conditions: read-out: GI
[10] = Cytotoxicity in human HEK293 cells assessed as inhibition of cell growth at 10 uM incubated for 72 hrs by CCK8 assay relative to control; type: cell-based; conditions: read-out: GI
[11] = AUC(last) in rat at 1 mg/kg, iv measured up to 24 hrs by LC-MS/MS analysis; type: ADME, organism-based; set-up: dose 1 mg/kg, route intravenous, time 0 - last; conditions: in vivo
[12] = Half life in rat at 1 mg/kg, iv measured up to 24 hrs by LC-MS/MS analysis; type: ADME, organism-based; conditions: in vivo
[13] = Clearance in rat at 1 mg/kg, iv measured up to 24 hrs by LC-MS/MS analysis; type: ADME, organism-based; conditions: in vivo
[14] = Volume of distribution at steady state in rat at 1 mg/kg, iv measured up to 24 hrs by LC-MS/MS analysis; type: ADME, organism-based; conditions: in vivo, read-out: Vdss
[15] = Cmax in rat at 10 mg/kg, po measured up to 24 hrs by LC-MS/MS analysis; type: ADME, organism-based; set-up: dose 10 mg/kg, route oral; conditions: in vivo
[16] = AUC (last) in rat at 10 mg/kg, po measured up to 24 hrs by LC-MS/MS analysis; type: ADME, organism-based; set-up: dose 10 mg/kg, time 0 - last, route oral; conditions: in vivo
[17] = Oral bioavailability in rat at 10 mg/kg measured up to 24 hrs by LC-MS/MS analysis; type: ADME, organism-based; conditions: in vivo
[18] = Drug level in liver of Wistar rat at 10 mg/kg, po measured at 4 hrs by LC-MS/MS analysis; type: ADME, organism-based; conditions: read-out: Drug uptake
[19] = Drug level in plasma of Wistar rat at 10 mg/kg, po measured at 4 hrs by LC-MS/MS analysis; type: ADME, organism-based
[20] = Ratio of dug level in liver to plasma of Wistar rat at 10 mg/kg, po measured at 4 hrs by LC-MS/MS analysis; type: ADME, organism-based
[21] = Protein binding in rat plasma; type: ADME, cell-free; conditions: read-out: PPB
[22] = Protein binding in human plasma; type: ADME, cell-free; conditions: read-out: PPB
[23] = Drug level in liver of Wistar rat at 10 mg/kg, po measured up to 8 hrs by LC-MS/MS analysis; type: ADME, organism-based; conditions: in vivo
[24] = Tmax in rat at 10 mg/kg, po measured up to 24 hrs by LC-MS/MS analysis; type: ADME, organism-based; conditions: in vivo
[25] = Tmax in rat at 30 mg/kg, po measured up to 24 hrs by LC-MS/MS analysis; type: ADME, organism-based; conditions: in vivo
[26] = Tmax in rat at 100 mg/kg, po measured up to 24 hrs by LC-MS/MS analysis; type: ADME, organism-based; conditions: in vivo
[27] = Cmax in rat at 30 mg/kg, po measured up to 24 hrs by LC-MS/MS analysis; type: ADME, organism-based; set-up: dose 30 mg/kg, route oral; conditions: in vivo
[28] = Cmax in rat at 100 mg/kg, po measured up to 24 hrs by LC-MS/MS analysis; type: ADME, organism-based; set-up: dose 100 mg/kg, route oral; conditions: in vivo
[29] = Cmax in beagle dog at 10 mg/kg, po measured up to 24 hrs by LC-MS/MS analysis; type: ADME, organism-based, Canis lupus familiaris; set-up: dose 10 mg/kg, route oral; conditions: in vivo
[30] = AUC (last) in rat at 30 mg/kg, po measured up to 24 hrs by LC-MS/MS analysis; type: ADME, organism-based; set-up: dose 30 mg/kg, time 0 - last, route oral; conditions: in vivo
[31] = AUC (last) in rat at 100 mg/kg, po measured up to 24 hrs by LC-MS/MS analysis; type: ADME, organism-based; set-up: dose 100 mg/kg, time 0 - last, route oral; conditions: in vivo
[32] = AUC (last) in beagle dog at 10 mg/kg, po measured up to 24 hrs by LC-MS/MS analysis; type: ADME, organism-based, Canis lupus familiaris; set-up: dose 10 mg/kg, time 0 - last, route oral; conditions: in vivo
[33] = AUC(last) in beagle dog at 1 mg/kg, iv measured up to 24 hrs by LC-MS/MS analysis; type: ADME, organism-based, Canis lupus familiaris; set-up: dose 1 mg/kg, route intravenous, time 0 - last; conditions: in vivo
[34] = Half life in beagle dog at 1 mg/kg, iv measured up to 24 hrs by LC-MS/MS analysis; type: ADME, organism-based, Canis lupus familiaris; conditions: in vivo
[35] = Clearance in beagle dog at 1 mg/kg, iv measured up to 24 hrs by LC-MS/MS analysis; type: ADME, organism-based, Canis lupus familiaris; conditions: in vivo
[36] = Volume of distribution at steady state in beagle dog at 1 mg/kg, iv measured up to 24 hrs by LC-MS/MS analysis; type: ADME, organism-based, Canis lupus familiaris; conditions: in vivo, read-out: Vdss
[37] = Toxicity in beagle dog assessed as induction of emesis at 10 mg/kg measured up to 24 hrs; type: organism-based, Canis lupus familiaris; conditions: in vivo
[38] = Oral bioavailability in beagle dog at 10 mg/kg measured up to 24 hrs by LC-MS/MS analysis; type: ADME, organism-based, Canis lupus familiaris; conditions: in vivo
[39] = Cytotoxicity in human HuH7 cells assessed as inhibition of cell growth at 10 uM incubated for 72 hrs by CCK8 assay relative to control; type: cell-based, Huh-7; conditions: read-out: GI
[40] = Tmax in beagle dog at 10 mg/kg, po measured up to 24 hrs by LC-MS/MS analysis; type: ADME, organism-based, Canis lupus familiaris; conditions: in vivo
[41] = Tmax in beagle dog at 30 mg/kg, po measured up to 24 hrs by LC-MS/MS analysis; type: ADME, organism-based, Canis lupus familiaris; conditions: in vivo
[42] = Tmax in beagle dog at 100 mg/kg, po measured up to 24 hrs by LC-MS/MS analysis; type: ADME, organism-based, Canis lupus familiaris; conditions: in vivo
[43] = Cmax in beagle dog at 30 mg/kg, po measured up to 24 hrs by LC-MS/MS analysis; type: ADME, organism-based, Canis lupus familiaris; set-up: dose 30 mg/kg, route oral; conditions: in vivo
[44] = Cmax in beagle dog at 100 mg/kg, po measured up to 24 hrs by LC-MS/MS analysis; type: ADME, organism-based, Canis lupus familiaris; set-up: dose 100 mg/kg, route oral; conditions: in vivo
[45] = AUC (last) in beagle dog at 30 mg/kg, po measured up to 24 hrs by LC-MS/MS analysis; type: ADME, organism-based, Canis lupus familiaris; set-up: dose 30 mg/kg, route oral, time 0 - last; conditions: in vivo
[46] = AUC (last) in beagle dog at 100 mg/kg, po measured up to 24 hrs by LC-MS/MS analysis; type: ADME, organism-based, Canis lupus familiaris; set-up: dose 100 mg/kg, route oral, time 0 - last; conditions: in vivo

Chain of CYP2C9 (P11712 whole entry): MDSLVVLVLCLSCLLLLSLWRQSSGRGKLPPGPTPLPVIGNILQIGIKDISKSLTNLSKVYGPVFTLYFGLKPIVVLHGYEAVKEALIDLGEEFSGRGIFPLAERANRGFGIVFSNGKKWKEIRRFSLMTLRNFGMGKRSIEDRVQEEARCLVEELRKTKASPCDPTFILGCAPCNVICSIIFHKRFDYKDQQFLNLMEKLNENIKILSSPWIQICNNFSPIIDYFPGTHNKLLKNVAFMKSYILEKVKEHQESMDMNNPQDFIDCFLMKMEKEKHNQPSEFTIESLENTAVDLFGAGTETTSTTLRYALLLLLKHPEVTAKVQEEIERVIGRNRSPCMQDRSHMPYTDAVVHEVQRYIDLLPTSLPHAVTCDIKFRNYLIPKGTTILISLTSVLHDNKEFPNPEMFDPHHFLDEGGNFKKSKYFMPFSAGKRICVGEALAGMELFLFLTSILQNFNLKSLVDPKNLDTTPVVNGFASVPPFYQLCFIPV
Chain of CYP2D6 (P10635 whole entry): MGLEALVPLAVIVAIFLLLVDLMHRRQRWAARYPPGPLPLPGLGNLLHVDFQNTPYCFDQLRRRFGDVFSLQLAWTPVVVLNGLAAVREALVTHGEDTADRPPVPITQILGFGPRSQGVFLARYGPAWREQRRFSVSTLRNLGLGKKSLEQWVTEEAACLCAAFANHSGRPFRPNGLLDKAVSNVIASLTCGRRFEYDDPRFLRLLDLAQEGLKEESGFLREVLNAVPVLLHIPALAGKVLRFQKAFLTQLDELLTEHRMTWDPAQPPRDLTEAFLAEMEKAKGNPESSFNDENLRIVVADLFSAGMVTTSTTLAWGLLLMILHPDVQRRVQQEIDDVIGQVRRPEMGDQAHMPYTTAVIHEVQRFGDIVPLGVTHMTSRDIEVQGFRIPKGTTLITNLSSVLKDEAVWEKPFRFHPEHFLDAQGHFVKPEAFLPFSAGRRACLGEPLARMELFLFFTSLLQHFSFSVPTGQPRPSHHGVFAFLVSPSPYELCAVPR
Chain of CYP3A4 (P08684 whole entry): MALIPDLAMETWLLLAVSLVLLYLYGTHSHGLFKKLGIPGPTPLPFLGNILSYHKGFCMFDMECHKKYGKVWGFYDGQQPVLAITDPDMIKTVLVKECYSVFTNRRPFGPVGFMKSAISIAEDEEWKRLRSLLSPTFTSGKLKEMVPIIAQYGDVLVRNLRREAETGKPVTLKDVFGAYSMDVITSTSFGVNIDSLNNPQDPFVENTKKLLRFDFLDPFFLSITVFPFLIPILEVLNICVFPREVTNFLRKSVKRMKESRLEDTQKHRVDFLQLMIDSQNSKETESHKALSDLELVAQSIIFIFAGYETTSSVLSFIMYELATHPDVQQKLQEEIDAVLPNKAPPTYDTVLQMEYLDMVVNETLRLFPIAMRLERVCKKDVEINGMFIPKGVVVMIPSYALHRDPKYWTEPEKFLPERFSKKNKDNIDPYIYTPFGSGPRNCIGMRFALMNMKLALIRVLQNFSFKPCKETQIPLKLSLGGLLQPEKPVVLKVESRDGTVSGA

COC(=O)N[C@H](C(=O)N1CCC[C@H]1c1ncc(-c2ccc3c(c2)CCc2cc(-c4cnc([C@@H]5CCCN5C(=O)[C@@H](NC(=O)OC)C(C)C)[nH]4)sc2-3)[nH]1)C(C)C
Drug metabolism [1]: 0.01 nmol/min/mg
Drug metabolism [2]: 0.01 nmol/min/mg
inhibition at 10 min, 10 µM [3]: 36%
inhibition at 10 min, 10 µM [4]: 35%
inhibition at 10 min, 10 µM [5]: 56%
inhibition at 72 h, 3 µM [6]: 2%
inhibition at 72 h, 3 µM [7]: 0%
inhibition at 72 h, 10 µM [8]: 6%
inhibition at 72 h, 3 µM [9]: 2%
inhibition at 72 h, 10 µM [10]: 28%
AUC(0-t) at 24 h [11]: 2 µM·h
half-life [12]: 1.5 h
clearance [13]: 10 mL/min/kg
Vd [14]: 1.1 L/kg
Cmax [15]: 1.6 to 6 µM
AUC(0-t) at 24 h [16]: 6 to 24 µM·h
bioavailability [17]: 30%
concentration at 4 h [18]: 7.4 µM
concentration at 4 h [19]: 1.25 µM
Kp at 4 h [20]: 6
fraction unbound [21]: < 0.01
fraction unbound [22]: < 0.01
Drug uptake [23]: Active
Tmax [24]: 0.25 to 2 h
Tmax [25]: 1 to 4 h
Tmax [26]: 2 to 4 h
Cmax [27]: 14 µM
Cmax [28]: 43 µM
Cmax [29]: 6 µM
AUC(0-t) at 24 h [30]: 77 µM·h
AUC(0-t) at 24 h [31]: 468 µM·h
AUC(0-t) at 24 h [32]: 11 to 93 µM·h
AUC(0-t) at 24 h [33]: 4 µM·h
half-life [34]: 4 h
clearance [35]: 5 mL/min/kg
Vd [36]: 1 L/kg
Activity [37]: Toxic
bioavailability [38]: 37 to 100%

COC(=O)N[C@H](C(=O)N1CCC[C@H]1c1ncc(-c2ccc3c(ccc4cc(-c5cnc([C@@H]6CCCN6C(=O)[C@@H](NC(=O)OC)C(C)C)[nH]5)sc43)c2)[nH]1)C(C)C
Drug metabolism [1]: 0.01 nmol/min/mg
Drug metabolism [2]: 0.04 nmol/min/mg
inhibition at 10 min, 10 µM [3]: 12%
inhibition at 10 min, 10 µM [4]: 42%
inhibition at 10 min, 10 µM [5]: 12%
inhibition at 72 h, 3 µM [6]: 0%
inhibition at 72 h, 10 µM [39]: 14%
inhibition at 72 h, 3 µM [7]: 3%
inhibition at 72 h, 10 µM [8]: 22%
inhibition at 72 h, 3 µM [9]: 0%
inhibition at 72 h, 10 µM [10]: 36%
AUC(0-t) at 24 h [11]: 2 µM·h
half-life [12]: 2 h
clearance [13]: 11 mL/min/kg
Vd [14]: 2 L/kg
Cmax [15]: 0.9 to 1 µM
AUC(0-t) at 24 h [16]: 4 to 6 µM·h
bioavailability [17]: 30%
concentration at 4 h [18]: 8.5 µM
concentration at 4 h [19]: 0.6 µM
Kp at 4 h [20]: 14.5
fraction unbound [21]: < 0.01
fraction unbound [22]: < 0.01
Drug uptake [23]: Active
Tmax [24]: 4 to 6 h
Tmax [25]: 4 to 6 h
Tmax [26]: 4 to 6 h
Tmax [40]: 1 h
Tmax [41]: 4 h
Tmax [42]: 3 h
Cmax [27]: 3 µM
Cmax [28]: 15 µM
Cmax [29]: 5 µM
Cmax [43]: 10 µM
Cmax [44]: 17 µM
AUC(0-t) at 24 h [30]: 24 µM·h
AUC(0-t) at 24 h [31]: 127 µM·h
AUC(0-t) at 24 h [32]: 49 µM·h
AUC(0-t) at 24 h [45]: 86 µM·h
AUC(0-t) at 24 h [46]: 179 µM·h
AUC(0-t) at 24 h [33]: 3 µM·h
half-life [34]: 4 h
clearance [35]: 6 mL/min/kg
Vd [36]: 2 L/kg
bioavailability [38]: 100%
